# Assay results: patent US8952024B2, “Herbicidal pyrimidone derivatives” (E I du Pont de Nemours and Company, priority 2009, dated 2015)
# System: Italian ryegrass (Lolium multiflorum)
# Assay: Test B pre-/postemergence plant response
# Assay type: in vivo
# Details: Postemergence, 31 g ai/ha; 0 to 100 scale (0 no effect, 100 complete control)
# Outline: (§1)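 Seeds sown in loam–sand blend were treated preemergence, and plants at 2–18 cm (1- to 4-leaf stage) in peat-based medium were treated postemergence; compounds were formulated in non-phytotoxic solvent with surfactant. After 13–15 days in greenhouse, response was visually rated against controls, 0 (no effect) to 100 (complete control).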
row,SMILES,"Plant response rating, Ryegrass, Italian"
1,CCCn1c(-c2cccc(Cl)c2)ncc(C(=O)C2=C(O)CCCC2=O)c1=O [Compound 190],0

# Same assay, conditions: Postemergence, 125 g ai/ha; scale 0 to 100 (0 no effect, 100 complete control)
row,SMILES,"Plant response rating, Ryegrass, Italian"
1,CCCn1c(-c2cccc(Cl)c2)ncc(C(=O)C2=C(O)CCCC2=O)c1=O [Compound 190],20

# Same assay, conditions: Postemergence, 250 g ai/ha; scale 0 to 100 (0 no effect, 100 complete control); 13 to 15 days
row,SMILES,"Plant response rating, Ryegrass, Italian"
1,CCCn1c(-c2cccc(Cl)c2)ncc(C(=O)C2=C(O)CCCC2=O)c1=O [Compound 190],30

# System: bermudagrass (Cynodon dactylon)
# Assay: Test B pre-/postemergence plant response
# Assay type: in vivo
# Details: 62 g ai/ha, postemergence; 0 is no effect, 100 is complete control; 13 to 15 days
# Outline: as §1
row,SMILES,Bermudagrass plant response rating (0 to 100 scale)
1,CCCn1c(-c2cccc(Cl)c2)ncc(C(=O)C2=C(O)CCCC2=O)c1=O [Compound 190],100

# Same assay, conditions: Postemergence, 31 g ai/ha; 0 to 100 scale (0 no effect, 100 complete control)
row,SMILES,"Plant response rating, Bermudagrass"
1,CCCn1c(-c2cccc(Cl)c2)ncc(C(=O)C2=C(O)CCCC2=O)c1=O [Compound 190],98

# Same assay, conditions: Postemergence, 125 g ai/ha; scale 0 to 100 (0 no effect, 100 complete control)
row,SMILES,"Plant response rating, Bermudagrass"
1,CCCn1c(-c2cccc(Cl)c2)ncc(C(=O)C2=C(O)CCCC2=O)c1=O [Compound 190],100

# Same assay, conditions: Postemergence, 250 g ai/ha; scale 0 to 100 (0 no effect, 100 complete control); 13 to 15 days
row,SMILES,"Plant response rating, Bermudagrass"
1,CCCn1c(-c2cccc(Cl)c2)ncc(C(=O)C2=C(O)CCCC2=O)c1=O [Compound 190],100

# System: corn (Zea mays)
# Assay: Test B pre-/postemergence plant response
# Assay type: in vivo
# Details: Postemergence, 31 g ai/ha; 0 to 100 scale (0 no effect, 100 complete control)
# Outline: as §1
row,SMILES,"Plant response rating, Corn"
1,CCCn1c(-c2cccc(Cl)c2)ncc(C(=O)C2=C(O)CCCC2=O)c1=O [Compound 190],0

# Same assay, conditions: Postemergence, 125 g ai/ha; scale 0 to 100 (0 no effect, 100 complete control)
row,SMILES,"Plant response rating, Corn"
1,CCCn1c(-c2cccc(Cl)c2)ncc(C(=O)C2=C(O)CCCC2=O)c1=O [Compound 190],40

# Same assay, conditions: Postemergence, 250 g ai/ha; scale 0 to 100 (0 no effect, 100 complete control); 13 to 15 days
row,SMILES,"Plant response rating, Corn"
1,CCCn1c(-c2cccc(Cl)c2)ncc(C(=O)C2=C(O)CCCC2=O)c1=O [Compound 190],65

# System: downy bromegrass (Bromus tectorum)
# Assay: Test B pre-/postemergence plant response
# Assay type: in vivo
# Details: 62 g ai/ha, postemergence; 0 is no effect, 100 is complete control; 13 to 15 days
# Outline: as §1
row,SMILES,"Bromegrass, Downy plant response rating (0 to 100 scale)"
1,CCCn1c(-c2cccc(Cl)c2)ncc(C(=O)C2=C(O)CCCC2=O)c1=O [Compound 190],30

# Same assay, conditions: Postemergence, 31 g ai/ha; 0 to 100 scale (0 no effect, 100 complete control)
row,SMILES,"Plant response rating, Bromegrass, Downy"
1,CCCn1c(-c2cccc(Cl)c2)ncc(C(=O)C2=C(O)CCCC2=O)c1=O [Compound 190],5

# Same assay, conditions: Postemergence, 125 g ai/ha; scale 0 to 100 (0 no effect, 100 complete control)
row,SMILES,"Plant response rating, Bromegrass, Downy"
1,CCCn1c(-c2cccc(Cl)c2)ncc(C(=O)C2=C(O)CCCC2=O)c1=O [Compound 190],35

# Same assay, conditions: Postemergence, 250 g ai/ha; scale 0 to 100 (0 no effect, 100 complete control); 13 to 15 days
row,SMILES,"Plant response rating, Bromegrass, Downy"
1,CCCn1c(-c2cccc(Cl)c2)ncc(C(=O)C2=C(O)CCCC2=O)c1=O [Compound 190],35

# System: giant foxtail (Setaria faberii)
# Assay: Test B pre-/postemergence plant response
# Assay type: in vivo
# Details: Postemergence, 31 g ai/ha; 0 to 100 scale (0 no effect, 100 complete control)
# Outline: as §1
row,SMILES,"Plant response rating, Foxtail, Giant"
1,CCCn1c(-c2cccc(Cl)c2)ncc(C(=O)C2=C(O)CCCC2=O)c1=O [Compound 190],70

# Same assay, conditions: Postemergence, 125 g ai/ha; scale 0 to 100 (0 no effect, 100 complete control)
row,SMILES,"Plant response rating, Foxtail, Giant"
1,CCCn1c(-c2cccc(Cl)c2)ncc(C(=O)C2=C(O)CCCC2=O)c1=O [Compound 190],90

# Same assay, conditions: Postemergence, 250 g ai/ha; scale 0 to 100 (0 no effect, 100 complete control); 13 to 15 days
row,SMILES,"Plant response rating, Foxtail, Giant"
1,CCCn1c(-c2cccc(Cl)c2)ncc(C(=O)C2=C(O)CCCC2=O)c1=O [Compound 190],95

# System: goosegrass (Eleusine indica)
# Assay: Test B pre-/postemergence plant response
# Assay type: in vivo
# Details: Postemergence, 31 g ai/ha; 0 to 100 scale (0 no effect, 100 complete control)
# Outline: as §1
row,SMILES,"Plant response rating, Goosegrass"
1,CCCn1c(-c2cccc(Cl)c2)ncc(C(=O)C2=C(O)CCCC2=O)c1=O [Compound 190],70

# Same assay, conditions: Postemergence, 125 g ai/ha; scale 0 to 100 (0 no effect, 100 complete control)
row,SMILES,"Plant response rating, Goosegrass"
1,CCCn1c(-c2cccc(Cl)c2)ncc(C(=O)C2=C(O)CCCC2=O)c1=O [Compound 190],80

# Same assay, conditions: Postemergence, 250 g ai/ha; scale 0 to 100 (0 no effect, 100 complete control); 13 to 15 days
row,SMILES,"Plant response rating, Goosegrass"
1,CCCn1c(-c2cccc(Cl)c2)ncc(C(=O)C2=C(O)CCCC2=O)c1=O [Compound 190],98

# System: green foxtail (Setaria viridis)
# Assay: Test B pre-/postemergence plant response
# Assay type: in vivo
# Details: Postemergence, 31 g ai/ha; 0 to 100 scale (0 no effect, 100 complete control)
# Outline: as §1
row,SMILES,"Plant response rating, Foxtail, Green"
1,CCCn1c(-c2cccc(Cl)c2)ncc(C(=O)C2=C(O)CCCC2=O)c1=O [Compound 190],25

# Same assay, conditions: Postemergence, 125 g ai/ha; scale 0 to 100 (0 no effect, 100 complete control)
row,SMILES,"Plant response rating, Foxtail, Green"
1,CCCn1c(-c2cccc(Cl)c2)ncc(C(=O)C2=C(O)CCCC2=O)c1=O [Compound 190],45

# Same assay, conditions: Postemergence, 250 g ai/ha; scale 0 to 100 (0 no effect, 100 complete control); 13 to 15 days
row,SMILES,"Plant response rating, Foxtail, Green"
1,CCCn1c(-c2cccc(Cl)c2)ncc(C(=O)C2=C(O)CCCC2=O)c1=O [Compound 190],70

# System: johnsongrass (Sorghum halepense)
# Assay: Test B pre-/postemergence plant response
# Assay type: in vivo
# Details: Postemergence, 31 g ai/ha; 0 to 100 scale (0 no effect, 100 complete control)
# Outline: as §1
row,SMILES,"Plant response rating, Johnsongrass"
1,CCCn1c(-c2cccc(Cl)c2)ncc(C(=O)C2=C(O)CCCC2=O)c1=O [Compound 190],60

# Same assay, conditions: Postemergence, 125 g ai/ha; scale 0 to 100 (0 no effect, 100 complete control)
row,SMILES,"Plant response rating, Johnsongrass"
1,CCCn1c(-c2cccc(Cl)c2)ncc(C(=O)C2=C(O)CCCC2=O)c1=O [Compound 190],75

# Same assay, conditions: Postemergence, 250 g ai/ha; scale 0 to 100 (0 no effect, 100 complete control); 13 to 15 days
row,SMILES,"Plant response rating, Johnsongrass"
1,CCCn1c(-c2cccc(Cl)c2)ncc(C(=O)C2=C(O)CCCC2=O)c1=O [Compound 190],80

# System: large crabgrass (Digitaria sanguinalis)
# Assay: Test B pre-/postemergence plant response
# Assay type: in vivo
# Details: Postemergence, 31 g ai/ha; 0 to 100 scale (0 no effect, 100 complete control)
# Outline: as §1
row,SMILES,"Plant response rating, Crabgrass, Large"
1,CCCn1c(-c2cccc(Cl)c2)ncc(C(=O)C2=C(O)CCCC2=O)c1=O [Compound 190],60

# Same assay, conditions: Postemergence, 125 g ai/ha; scale 0 to 100 (0 no effect, 100 complete control)
row,SMILES,"Plant response rating, Crabgrass, Large"
1,CCCn1c(-c2cccc(Cl)c2)ncc(C(=O)C2=C(O)CCCC2=O)c1=O [Compound 190],80

# Same assay, conditions: Postemergence, 250 g ai/ha; scale 0 to 100 (0 no effect, 100 complete control); 13 to 15 days
row,SMILES,"Plant response rating, Crabgrass, Large"
1,CCCn1c(-c2cccc(Cl)c2)ncc(C(=O)C2=C(O)CCCC2=O)c1=O [Compound 190],90

# System: morningglory (Ipomoea coccinea)
# Assay: Test B pre-/postemergence plant response
# Assay type: in vivo
# Details: Postemergence, 31 g ai/ha; 0 to 100 scale (0 no effect, 100 complete control)
# Outline: as §1
row,SMILES,"Plant response rating, Morningglory"
1,CCCn1c(-c2cccc(Cl)c2)ncc(C(=O)C2=C(O)CCCC2=O)c1=O [Compound 190],40

# Same assay, conditions: Postemergence, 125 g ai/ha; scale 0 to 100 (0 no effect, 100 complete control)
row,SMILES,"Plant response rating, Morningglory"
1,CCCn1c(-c2cccc(Cl)c2)ncc(C(=O)C2=C(O)CCCC2=O)c1=O [Compound 190],85

# Same assay, conditions: Postemergence, 250 g ai/ha; scale 0 to 100 (0 no effect, 100 complete control); 13 to 15 days
row,SMILES,"Plant response rating, Morningglory"
1,CCCn1c(-c2cccc(Cl)c2)ncc(C(=O)C2=C(O)CCCC2=O)c1=O [Compound 190],100

# System: woolly cupgrass (Eriochloa villosa)
# Assay: Test B pre-/postemergence plant response
# Assay type: in vivo
# Details: Postemergence, 31 g ai/ha; 0 to 100 scale (0 no effect, 100 complete control)
# Outline: as §1
row,SMILES,"Plant response rating, Cupgrass, Woolly"
1,CCCn1c(-c2cccc(Cl)c2)ncc(C(=O)C2=C(O)CCCC2=O)c1=O [Compound 190],75

# Same assay, conditions: Postemergence, 125 g ai/ha; scale 0 to 100 (0 no effect, 100 complete control)
row,SMILES,"Plant response rating, Cupgrass, Woolly"
1,CCCn1c(-c2cccc(Cl)c2)ncc(C(=O)C2=C(O)CCCC2=O)c1=O [Compound 190],80

# Same assay, conditions: Postemergence, 250 g ai/ha; scale 0 to 100 (0 no effect, 100 complete control); 13 to 15 days
row,SMILES,"Plant response rating, Cupgrass, Woolly"
1,CCCn1c(-c2cccc(Cl)c2)ncc(C(=O)C2=C(O)CCCC2=O)c1=O [Compound 190],85

# System: yellow nutsedge (Cyperus esculentus)
# Assay: Test B pre-/postemergence plant response
# Assay type: in vivo
# Details: Postemergence, 31 g ai/ha; 0 to 100 scale (0 no effect, 100 complete control)
# Outline: as §1
row,SMILES,"Plant response rating, Nutsedge, Yellow"
1,CCCn1c(-c2cccc(Cl)c2)ncc(C(=O)C2=C(O)CCCC2=O)c1=O [Compound 190],35

# Same assay, conditions: Postemergence, 125 g ai/ha; scale 0 to 100 (0 no effect, 100 complete control)
row,SMILES,"Plant response rating, Nutsedge, Yellow"
1,CCCn1c(-c2cccc(Cl)c2)ncc(C(=O)C2=C(O)CCCC2=O)c1=O [Compound 190],65

# Same assay, conditions: Postemergence, 250 g ai/ha; scale 0 to 100 (0 no effect, 100 complete control); 13 to 15 days
row,SMILES,"Plant response rating, Nutsedge, Yellow"
1,CCCn1c(-c2cccc(Cl)c2)ncc(C(=O)C2=C(O)CCCC2=O)c1=O [Compound 190],75
